Earlier results on one compound are cited in patent US8329435B2, “Methods for improved uptake of biological molecules” (American Symbolic, LLC, priority 2007, dated 2012).

For this data set the following is noted: unmodified glutathione.

`N[C@@H](CCC(=O)N[C@@H](CS)C(=O)NCC(=O)O)C(=O)O` [glutathione]: the “half-life of glutathione in the blood” value (blood) is given as “around 120 seconds”. Where the note is “blood stream”, the “half-life in the blood stream” value is “about a minute and a half”.
